In publication PMC7367925, “The EU-ToxRisk method documentation, data processing and chemical testing pipeline for the regulatory use of new approach methods” (Archives of Toxicology, 2020):

Tests used:
[1] = target: T1, Estrogen receptor alpha (Homo sapiens, UniProt P03372); test: ERa-anti CALUX; format: cell-based; conditions: 24 h exposure, lowest effect level PC20, reference agonist at EC50, means from 3 assay runs
T1 construct: host or cells: U-2 OS
Protocol: (§1) After 24 h, exposure medium was prepared. […] All samples were tested in triplicates. […] Fig. SM_4. […] Fig. SM_4.
Cell line Endpoint effect Reference compound […]
ERa-anti CALUX Estrogen receptor antagonists PC20 tamoxifen […]
Cytotox CALUX Cytoxicity PC20 tributyltinacetate
(§2) Supplementary Material SM_4
(§3) Overview of CALUX assays.
(§4) This is defined as the concentration of test compound […]
(§5) for an antagonist assay is a PC20.
(§6) PC = positive control. FI = fold induction. PC10: concentration where test compound causes an activation equal to 10% of the maximum effect (positive control). PC20: concentration where test compound causes […]
(§7) FI=1.5: concentration where test
(§8) (A) exemplary graph of concentration- […]
(§9) receptor antagonism assay with PC20 as lowest-effect-level. (C) exemplary graph for assay with 1.5 fold inductionas lowest effect level. 9

[2] = target: T2, Androgen receptor (Homo sapiens, UniProt P10275); format: cell-based; conditions: 24 h exposure, lowest effect level PC20, reference agonist at EC50, means from 3 assay runs
T2 construct: host or cells: U-2 OS
T2 sequence (P10275 1-920): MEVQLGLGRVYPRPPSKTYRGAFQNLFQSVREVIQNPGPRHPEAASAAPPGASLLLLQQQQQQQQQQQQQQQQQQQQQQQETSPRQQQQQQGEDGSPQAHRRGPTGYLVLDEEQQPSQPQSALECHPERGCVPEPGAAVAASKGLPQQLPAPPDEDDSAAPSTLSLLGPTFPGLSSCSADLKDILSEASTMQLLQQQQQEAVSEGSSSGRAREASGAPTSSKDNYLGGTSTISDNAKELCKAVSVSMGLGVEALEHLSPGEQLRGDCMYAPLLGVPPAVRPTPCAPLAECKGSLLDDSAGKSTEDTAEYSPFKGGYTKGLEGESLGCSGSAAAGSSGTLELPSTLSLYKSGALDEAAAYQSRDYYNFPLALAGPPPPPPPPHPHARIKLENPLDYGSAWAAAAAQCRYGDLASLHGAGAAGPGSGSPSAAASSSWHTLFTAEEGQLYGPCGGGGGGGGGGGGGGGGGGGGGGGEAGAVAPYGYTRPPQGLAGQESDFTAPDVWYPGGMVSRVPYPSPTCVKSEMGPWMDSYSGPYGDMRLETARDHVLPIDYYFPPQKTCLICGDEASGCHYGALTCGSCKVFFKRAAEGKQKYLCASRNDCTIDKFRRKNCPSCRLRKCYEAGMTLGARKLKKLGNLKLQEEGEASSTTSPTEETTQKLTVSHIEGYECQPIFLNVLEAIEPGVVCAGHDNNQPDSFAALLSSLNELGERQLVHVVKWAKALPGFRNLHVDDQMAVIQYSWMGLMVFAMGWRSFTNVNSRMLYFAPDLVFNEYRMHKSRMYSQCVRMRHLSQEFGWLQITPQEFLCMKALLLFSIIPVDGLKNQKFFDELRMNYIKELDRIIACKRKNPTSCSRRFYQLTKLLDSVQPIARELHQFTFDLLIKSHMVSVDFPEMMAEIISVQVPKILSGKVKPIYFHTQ
Protocol: as §1, §2, §3, §4, §5, §6, §7, §8, §9

[3] = target: T3, Progesterone receptor (Homo sapiens, UniProt P06401); test: PR-anti CALUX; format: cell-based; conditions: 24 h exposure, lowest effect level PC20, reference agonist at EC50, means from 3 assay runs
T3 construct: host or cells: U-2 OS
T3 sequence (P06401 1-933): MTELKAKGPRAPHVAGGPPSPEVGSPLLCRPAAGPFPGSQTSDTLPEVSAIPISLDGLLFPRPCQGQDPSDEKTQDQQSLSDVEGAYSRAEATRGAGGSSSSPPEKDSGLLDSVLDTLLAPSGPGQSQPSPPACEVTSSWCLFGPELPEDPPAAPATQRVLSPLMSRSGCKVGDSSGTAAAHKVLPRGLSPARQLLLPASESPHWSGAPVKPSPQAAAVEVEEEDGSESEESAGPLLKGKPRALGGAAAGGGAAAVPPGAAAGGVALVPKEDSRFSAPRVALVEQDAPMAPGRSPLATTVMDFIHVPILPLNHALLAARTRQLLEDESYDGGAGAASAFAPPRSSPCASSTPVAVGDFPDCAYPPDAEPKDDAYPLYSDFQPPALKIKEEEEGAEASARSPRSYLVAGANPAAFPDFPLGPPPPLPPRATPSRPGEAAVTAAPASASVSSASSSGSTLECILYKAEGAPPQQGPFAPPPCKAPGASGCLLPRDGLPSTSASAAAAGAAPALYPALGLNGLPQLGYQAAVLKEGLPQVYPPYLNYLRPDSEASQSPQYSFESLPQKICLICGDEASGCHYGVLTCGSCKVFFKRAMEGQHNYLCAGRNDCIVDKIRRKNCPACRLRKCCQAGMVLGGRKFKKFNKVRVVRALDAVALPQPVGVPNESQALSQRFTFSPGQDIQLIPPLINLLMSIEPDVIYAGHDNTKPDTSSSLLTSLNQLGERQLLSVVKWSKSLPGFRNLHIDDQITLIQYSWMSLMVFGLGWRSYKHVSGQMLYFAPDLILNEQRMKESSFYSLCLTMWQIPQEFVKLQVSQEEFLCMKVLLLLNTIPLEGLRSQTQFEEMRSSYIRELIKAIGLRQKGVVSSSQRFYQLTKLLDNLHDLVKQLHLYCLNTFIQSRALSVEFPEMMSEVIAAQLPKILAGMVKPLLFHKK
Protocol: as §1, §2, §3, §4, §5, §6, §7, §8, §9

[4] = target: T4, Pregnane X receptor (Homo sapiens, UniProt O75469); test: PXR CALUX; format: cell-based; conditions: 24 h exposure, lowest effect level PC10, means from 3 assay runs
T4 construct: host or cells: U-2 OS
T4 sequence (O75469 1-434): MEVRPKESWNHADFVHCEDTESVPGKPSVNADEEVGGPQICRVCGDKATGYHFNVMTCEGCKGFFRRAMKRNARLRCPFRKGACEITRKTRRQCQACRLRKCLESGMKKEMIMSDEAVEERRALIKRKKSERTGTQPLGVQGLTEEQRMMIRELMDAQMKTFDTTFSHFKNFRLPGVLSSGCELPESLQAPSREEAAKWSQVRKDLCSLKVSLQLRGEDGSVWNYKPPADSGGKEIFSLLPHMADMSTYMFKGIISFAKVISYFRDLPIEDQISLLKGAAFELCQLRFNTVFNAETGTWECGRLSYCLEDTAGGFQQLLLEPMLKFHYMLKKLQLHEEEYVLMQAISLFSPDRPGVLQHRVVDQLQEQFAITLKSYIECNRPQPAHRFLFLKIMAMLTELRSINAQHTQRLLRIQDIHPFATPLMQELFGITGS
Protocol: as §1, §2, §3, §4, §5, §6, §7, §8, §9

[5] = parameters: method as in Nyffeler et al. 2018; conditions: cell culture plastic; ref Nyffeler et al. 2018; cited from earlier work
[6] = test system: U-2 OS reporter cell lines battery; test: CALUX reporter gene assay battery as a whole; conditions: all CALUX assays, 13 concentrations, 24 h exposure

T1 sequence (P03372 whole entry): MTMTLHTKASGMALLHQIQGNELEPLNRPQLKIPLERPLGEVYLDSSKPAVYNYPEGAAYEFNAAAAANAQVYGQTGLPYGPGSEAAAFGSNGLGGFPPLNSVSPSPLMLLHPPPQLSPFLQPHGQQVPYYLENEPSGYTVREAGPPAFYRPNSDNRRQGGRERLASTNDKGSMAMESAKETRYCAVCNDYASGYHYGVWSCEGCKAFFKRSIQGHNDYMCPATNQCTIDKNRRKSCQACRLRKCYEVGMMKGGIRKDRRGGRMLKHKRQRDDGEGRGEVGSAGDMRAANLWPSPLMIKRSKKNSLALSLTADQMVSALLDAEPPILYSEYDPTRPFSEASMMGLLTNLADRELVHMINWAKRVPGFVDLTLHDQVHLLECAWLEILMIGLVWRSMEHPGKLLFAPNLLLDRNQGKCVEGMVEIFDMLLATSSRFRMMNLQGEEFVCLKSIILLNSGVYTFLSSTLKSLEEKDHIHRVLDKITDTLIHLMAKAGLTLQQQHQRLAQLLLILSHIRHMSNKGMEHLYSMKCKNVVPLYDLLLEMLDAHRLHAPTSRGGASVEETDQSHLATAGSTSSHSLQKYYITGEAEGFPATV

Clc1cc(Cl)c(-c2cc(Cl)c(Cl)c(Cl)c2Cl)cc1Cl [PCB180, polychlorinated biphenyl 180]
PoD Erα - anta [1]: 6.0 -log(M) | PoD AR - anta [2]: 6.1 -log(M) | PoD PR - anta [3]: 6.3 -log(M) | PoD PXR - ago [4]: 5.5 -log(M) | fraction of the compound bound to plastic [5]: about one third | response profile over the CALUX battery (in words) [6]: only activated nuclear hormone receptor related assays
